{"source": "patent US12360118B2", "about": "“Method for protein kinase activity ranking” (KINOMICA LIMITED, priority 2015, dated 2025)", "key": {"[1]": {"tested_on": "eight haematological cell-lines", "assay": "Viability of haematological cell-lines (Guava ViaCount) and sensitivity coefficient (SC)", "type": "cell-based", "details": "nine kinase inhibitors of Table 1", "procedure": "B-cell lymphoma and leukemia cell-lines were routinely maintained in RPMI-1640 medium supplemented with 10% fetal-bovine serum (FBS) and 100 U·mL^−1 penicillin/streptomycin (P/S). Cells were maintained at a confluency of 0.5-2.0×10^6 cells·mL^−1. Stromal cells were grown in IMDM medium (supplemented with 10% FBS and 100 U·mL^−1 P/S) and maintained at a confluency of 2.0-30.0×10^6 cells in 175 cm^2 flasks. MS-5 conditioned IMDM medium was generated by growing stromal cells in IMDM for 3 days. All cells were kept at 37° C. in a humidified atmosphere at 5% CO2.\nCell-lines were seeded in 96 well plates (10,000 cells-well-), left overnight and treated with vehicle, or 1 to 1000 nM of AZD-5438 (CDK2i;), GF-109203X (PKCαi; Tocris), PF-3758309 (PAKi; Calbiochem), Trametinib (MEKi; Selleckchem), MK-2206 (AKTi; Selleckchem), KU-0063794 (mTORi; Chemdea) or TAK 715 (P38αi;). Cells were also treated with 0.01 to 10 μM of PKC-412 (PKC/Flt3i; Tocris) or 0.1 to 10 μM of TBB (CK2i; Sigma). After 72 h, cells were stained with Guava ViaCount reagent (Millipore) as indicated by the manufacturer and cell number and viability was measured using a Guava EasyCyte Plus instrument. […] After 72 h, cells were stained with Guava ViaCount reagent and cell number and viability was measured. […] Flow cytometry data were analyzed using CytoSoft (v2.5.7). IC50 values were calculated using Graphpad PRISM (v5.03). […]"}, "primary AML cells": {"tested_on": "primary AML cells", "assay": "Viability of primary AML cells (Guava ViaCount), IC50 and SC", "type": "cell-based, human", "details": "36 primary AML cases; threshold 50% reduction in viability at 1 μM", "procedure": "All patients gave informed consent for the storage of their blood cells for research purposes. Each procedure was conducted in accordance with the East London and City Research Ethics Committee, as previously described (Miraki-Moud, F. et al. Blood 125, 4060-4068 (2015)). All studies comply with the rules of the Review Board and by the revised Helsinki protocol. Peripheral blood was extracted from AML patients at St Bartholomew's Hospital and mononuclear cells, isolated using Ficoll gradient followed by red cell lysis, were stored in liquid N2. Primary AML blasts were thawed following standard procedures: briefly, vials were defrosted at 37 C and exposed to 500 μg of DNAse (Sigma) for 5 minutes. […] Cell number and viability were determined by trypan blue staining using a Vi-CELL XR cell viability analyser (Beckman Coulter).\nCell-lines were seeded in 96 well plates (10,000 cells-well-), left overnight and treated with vehicle, or 1 to 1000 nM of AZD-5438 (CDK2i;), GF-109203X (PKCαi; Tocris), PF-3758309 (PAKi; Calbiochem), Trametinib (MEKi; Selleckchem), MK-2206 (AKTi; Selleckchem), KU-0063794 (mTORi; Chemdea) or TAK 715 (P38αi;). […] After 72 h, cells were stained with Guava ViaCount reagent (Millipore) as indicated by the manufacturer and cell number and viability was measured using a Guava EasyCyte Plus instrument. […] Flow cytometry data were analyzed using CytoSoft (v2.5.7). […]"}, "CDK2": {"target": "CDK2 (Homo sapiens, UniProt P24941)", "details": "off-target of the PKCα inhibitor; cited from earlier work"}, "tyrosine kinases": {"tested_on": "tyrosine kinases", "assay": "K-score (Kinase Activity Ranking) of cells after pervanadate treatment, LC-MS/MS phosphoproteomics", "type": "cell-based", "details": "1 mM sodium pervanadate, 30 min; lysates mixed with untreated lysates", "procedure": "Technical replicates were averaged and peak areas for each phosphopeptide ion were then normalized to the sum of peptide intensities for each sample. […] Kinase Activity Ranking (KAR) was calculated for kinase K using the equation below (where m=the number of phosphorylation sites in the dataset matched to kinase K; α=the normalized intensity of the phosphorylation site i; l=the total number of phosphorylation sites in the dataset regardless of any kinase-substrate association; β=the normalized intensity of the phosphorylation site j; t=the total number of known target phosphorylation sites in the PhosphoSitePlus database for kinase K). […]\nP31/Fuj cells were exposed to 1 mM sodium pervanadate or left untreated during 30 min (Sodium pervanadate was prepared by mixing 30% H2O2 and 100 mM Na3VO4 pH 8.0 at 1:100 ratio during 15 min). […] After homogenization and protein quantification, treated and untreated cell lysates were mixed to a final protein concentration of 1.0 μg·μL^−1. […]\nWe first investigated the reproducibility and quantitative nature of Kinase Activity Ranking (KAR, which produces K-scores) as a measure of net kinase activity. […] To test the reproducibility of the analysis, we performed this experiment on three independent occasions and each was analyzed in analytical triplicate. […]"}}}
{"compound": "Cc1ncc(-c2ccnc(Nc3ccc(S(C)(=O)=O)cc3)n2)n1C(C)C", "note": "[CDK2i, AZD5438]", "values": [{"measurement": "Ranking of the kinase inhibitors based on their SCs (sensitivity coefficients)", "setting": "[1]", "result": "ranked the highest"}]}
{"compound": "O=C(O)c1ccc2c(c1)nc(Nc1cccc(Cl)c1)c1ccncc12", "note": "[CK2i, CX4945]", "values": [{"measurement": "Number of cases sensitive to this inhibitor only", "setting": "primary AML cells", "result": "Five"}]}
{"compound": "CC(=O)Nc1cccc(-n2c(=O)n(C3CC3)c(=O)c3c(Nc4ccc(I)cc4F)n(C)c(=O)c(C)c32)c1", "note": "[MEK1i, GSK1120212]", "values": [{"measurement": "Number of cases sensitive to this inhibitor only", "setting": "primary AML cells", "result": "three"}]}
{"compound": "Cc1nc(Nc2[nH]nc3c2CN(C(=O)N[C@H](CN(C)C)c2ccccc2)C3(C)C)c2sccc2n1", "note": "[PAKi, PF03758309]", "values": [{"measurement": "Ranking of the kinase inhibitors based on their SCs (sensitivity coefficients)", "setting": "[1]", "result": "ranked the highest"}]}
{"compound": "CN(C)CCCn1cc(C2=C(c3c[nH]c4ccccc34)C(=O)NC2=O)c2ccccc21", "note": "[PKCαi, GF109203X]", "values": [{"measurement": "Inhibition of CDK2", "setting": "CDK2", "result": "high potency"}]}
{"compound": "sodium pervanadate [pV]", "values": [{"measurement": "Change of the K-Score of tyrosine kinases", "setting": "tyrosine kinases", "result": "increase"}]}
